Reference: patent US10538516B2, “Oxadiazole derivative and pharmaceutical containing same” (National Center for Geriatrics and Gerontology, priority 2015, dated 2020)
Like-named read-outs stand apart in the source and are kept apart here.

Molecular target: T1, GAβ-dependent amyloid fibril formation (Human Aβ1-40 + GM1-containing liposome) (Homo sapiens, UniProt P05067)
T1 construct: Human Aβ1-40 (cat. #4307-v, prepared by Peptide Institute); purchased Peptide Institute 4307-v
Assay: Thioflavin T (ThT) assay of GAβ-dependent amyloid fibril formation (Aβ1-40 with GM1-containing liposome)
Assay type: biochemical
How it was run: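 Human Aβ1-40 (75 μM stock) pre-incubated 10 min at room temperature with compound (75 or 15 μM solution), then GM1-containing cholesterol/sphingomyelin liposome added and incubated 37° C, 18 hours. Fibrils quantified by ThT fluorescence (ex 430/em 490 nm, pH 8.5 glycine buffer); inhibition as ratio to compound-free control.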

[1] = inhibition rate against amyloid fibril formation, final concentration of the compound 25 μM, read-out: Inhibitory activity ABC evaluation
[2] = read-out: ThT Inhibitory activity (% inhibition)
[3] = @25 μM, read-out: ThT Inhibitory activity (% inhibition)
[4] = final concentration of the compound 25 μM, ratio of ThT fluorescence intensity with/without compound, 37° C. for 18 hours, read-out: inhibition rate against amyloid fibril formation (inhibitory activity on a scale of A to C)

T1 sequence (P05067 672-711 limits assumed): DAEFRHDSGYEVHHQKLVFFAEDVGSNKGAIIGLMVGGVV

Row | inhibition at 25 µM [1] | inhibition at 25 µM [3] | Structure (SMILES) | further results
1 | < 40% |  | O=C1CC(c2ncc(-c3ccc(OC(F)(F)F)cc3)[nH]2)CN1c1ccc(Cl)cc1 (stereo not shown) [Compound 124, 1-(4-chlorophenyl)-4-{5-[4-(trifluoromethoxy)phenyl]-1H-imidazol-2-yl}pyrrolidin-2-one] | 
2 | > 80% | 88% | COc1ccc(-c2noc([C@H](CO)NC(=O)c3ccc(Cl)cc3)n2)cc1 [Compound 125, (S)-4-chloro-N-(2-hydroxy-1-(3-(4-methoxyphenyl)-1,2,4-oxadiazol-5-yl)ethyl)benzamide] | inhibition at 5 µM [2]: 59%
3 | 40 to 80% |  | O=C(N[C@@H](CO)c1noc(-c2ccc(OC(F)(F)F)cc2)n1)c1ccc(Cl)cc1 [Compound 126, (R)-4-chloro-N-(2-hydroxy-1-(5-(4-(trifluoromethoxy)phenyl)-1,2,4-oxadiazol-3-yl)ethyl)benzamide] | 
4 | 40 to 80% |  | C[C@H](O)[C@H](NC(=O)c1ccc(Cl)cc1)c1nc(-c2ccc(OC(F)(F)F)cc2)no1 [Compound 127, 4-chloro-N-((1S,2S)-2-hydroxy-1-(3-(4-(trifluoromethoxy)phenyl)-1,2,4-oxa-diazol-5-yl)propyl) benzamide] | 
5 | 40 to 80% |  | O=C(N[C@@H](CO)c1noc(-c2ccc(OC(F)(F)F)cc2)n1)c1ccccc1 [Compound 128, (R)-N-(2-hydroxy-1-(5-(4-(trifluoro-methoxy)phenyl)-1,2,4-oxadiazol-3-yl)ethyl)benzamide] | 
6 | > 80% | 86% | O=C(N[C@@H](CO)c1nc(-c2ccc(C(F)(F)F)cc2)no1)c1ccc(Cl)cc1 [Compound 129, (S)-4-chloro-N-(2-hydroxy-1-(3-(4-(tri-fluoromethyl)phenyl)-1,2,4-oxadiazol-5-yl)ethyl)benzamide] | inhibition at 5 µM [2]: 68%; inhibition at 25 µM [4]: > 80%
7 | > 80% | 85% | O=C(N[C@@H](CO)c1nc(-c2ccc(C(F)(F)F)cc2)no1)c1ccccc1 [Compound 130, (S)-N-(2-hydroxy-1-(3-(4-(trifluoro-methyl)phenyl)-1,2,4-oxadiazol-5-yl)ethyl)benzamide] | inhibition at 5 µM [2]: 67%
8 | 40 to 80% |  | O=C(c1ccc(Cl)cc1)N1CC[C@H](O)[C@H]1c1nc(-c2ccc(OC(F)(F)F)cc2)no1 [Compound 131, (4-chlorophenyl) ((2S,3S)-3-hydroxy-2-(3-(4-(trifluoro-methoxy)phenyl)-1,2,4-oxadiazol-5-yl)pyrrolidin-1-yl)methanone] | 
9 | > 80% |  | COc1ccc(-c2noc([C@@H](NC(=O)c3ccc(Cl)cc3)[C@@H](C)O)n2)cc1 [Compound 132, 4-chloro-N-((1S,2R)-2-hydroxy-1-(3-(4-methoxy-phenyl)-1,2,4-oxadiazol-5-yl)propyl)benzamide] | inhibition at 25 µM [4]: > 80%
10 |  | 88% | O=C(N[C@@H](CO)c1nc(-c2ccc(C(F)(F)F)cc2)no1)c1ccc(F)cc1 [Compound 133, (S)-4-fluoro-N-(2-hydroxy-1-(3-(4-(trifluoromethyl)phenyl)-1,2,4-oxadiazol-5-yl)ethyl)benzamide] | inhibition at 25 µM [4]: > 80%; Inhibitory activity ABC evaluation (inhibition rate against amyloid fibril formation, final concentration of the compound 25 μM, 25 µM): A (80% or more was evaluated as A)
11 | 40 to 80% |  | O=C(N[C@@H](CO)c1nc(-c2ccc(O)cc2F)no1)c1ccccc1 [Compound 142, N-[(1S)-1-[3-(2-fluoro-4-hydroxyphenyl)-1,2,4-oxadiazol-5-yl]-2-hydroxyethyl]benzamide] | 
12 | > 80% |  | Cc1ccc(-c2noc([C@H](CO)NC(=O)c3ccccc3)n2)cc1 [Compound 143, N-[(1S)-2-hydroxy-1-[3-(4-methylphenyl)-1,2,4-oxadiazol-5-yl]ethyl]benzamide] | 
13 | > 80% |  | COc1ccc(-c2noc([C@H](CO)NC(=O)c3ccccc3)n2)cc1F [Compound 144, N-[(1S)-1-[3-(3-fluoro-4-methoxyphenyl)-1,2,4-oxadiazol-5-yl]-2-hydroxyethyl]benzamide] | 
14 | 40 to 80% |  | CC(C)c1ccc(-c2noc([C@H](CO)NC(=O)c3ccccc3)n2)cc1 [Compound 145, N-[(1S)-2-hydroxy-1-{3-[4-(propan-2-yl)phenyl]-1,2,4-oxadiazol-5-yl}ethyl]benzamide] | 
15 | > 80% | 87% | O=C(N[C@@H](CO)c1nc(-c2ccc(O)cc2)no1)c1ccccc1 [Compound 146, N-[(1S)-2-hydroxy-1-[3-(4-hydroxy-phenyl)-1,2,4-oxadiazol-5-yl]ethyl]benzamide] | 
16 | 40 to 80% | 53% | COCCCNC(=O)c1ccc(-c2noc([C@H](CO)NC(=O)c3ccc(F)cc3)n2)cc1 [Compound 147, 4-{5-[(1S)-1-[(4-fluorophenyl) formamido]-2-hydroxyethyl]-1,2,4-oxadiazol-3-yl}-N-(3-methoxypropyl) benzamide] | 
17 | 40 to 80% |  | COCCCNC(=O)c1ccc(-c2noc([C@H](CO)NC(=O)c3ccccc3)n2)cc1 [Compound 148, 4-[5-[(1S)-2-hydroxy-1-(phenylformamido)ethyl]-1,2,4-oxa-diazol-3-yl)-N-(3-methoxypropyl) benzamide] | 
18 | < 40% |  | NC[C@H](NC(=O)c1ccccc1)c1nc(-c2ccc(OC(F)(F)F)cc2)no1 [Compound 149, N-[(1S)-2-amino-1-{3-[4-(trifluoromethoxy)phenyl]-1,2,4-oxa-diazol-5-yl}ethyl] benzamide] | 
19 | > 80% |  | CN(C)c1ccc(-c2noc([C@H](CO)NC(=O)c3ccccc3)n2)cc1 [Compound 150, N-[(1S)-1-{3-[4-(dimethylamino)phenyl]-1,2,4-oxadiazol-5-yl}-2-hydroxyethyl] benzamide] | 
20 | 40 to 80% |  | O=C(NCC(CO)c1nc(-c2ccc(C(F)(F)F)cc2)no1)c1ccc(F)cc1 (stereo not shown) [Compound 151, 4-fluoro-N-(3-hydroxy-2-{3-[4-(trifluoro-methyl)phenyl]-1,2,4-oxadiazol-5-yl}propyl)benzamide] | 
21 | 40 to 80% | 76% | CC(=O)c1ccc(-c2noc([C@H](CO)NC(=O)c3ccccc3)n2)cc1 [Compound 153, N-[(1S)-1-[3-(4-acetylphenyl)-1,2,4-oxadiazol-5-yl]-2-hydroxyethyl] benzamide] | 
22 | 40 to 80% | 74% | O=C(N[C@@H](CO)c1nc(-c2ccc(OCCO)cc2)no1)c1ccccc1 [Compound 156, N-[(1S)-2-hydroxy-1-{3-[4-(2-hydroxyethoxy)phenyl]-1,2,4-oxadiazol-5-yl}ethyl] benzamide] | 
23 | > 80% |  | O=C(N[C@@H](CO)c1nc(-c2ccc(C(F)(F)F)cc2)no1)c1ccc(F)nc1 [Compound 157, 6-fluoro-N-[(1S)-2-hydroxy-1-{3-[4-(trifluoromethyl)phenyl]-1,2,4-oxadiazol-5-yl}ethyl] pyridine-3-carboxamide] | 
24 | 40 to 80% |  | O=C(N[C@@H](CO)c1nc(-c2ccc(OCCN3CCOCC3)cc2)no1)c1ccccc1 [Compound 158, N-[(1S)-2-hydroxy-1-(3-{4-[2-(morpholin-4-yl)ethoxy]phenyl}-1,2,4-oxadiazol-5-yl)ethyl] benzamide] | 
25 |  |  | CCN(C)C(=O)Oc1ccc(-c2noc([C@H](CO)NC(=O)c3ccccc3)n2)cc1 [Compound 159] | inhibition at 25 µM (read-out: Inhibitory activity ABC evaluation): < 40%
26 | 40 to 80% |  | O=C(N[C@@H](CO)c1nc(-c2ccc(CF)cc2)no1)c1ccc(F)cc1 [Compound 161, 4-fluoro-N-[(1S)-1-{3-[4-(fluoromethyl)phenyl]-1,2,4-oxadiazol-5-yl}-2-hydroxyethyl] benzamide] | 
